According to patent publication US20250059232A1, “PENTAPEPTIDE AND USE THEREOF” (ENSOL BIOSCIENCES INC., priority 2021, published 2025):

How the values were obtained:
[1] = 4-week repeated subcutaneous toxicity and toxicokinetic test in beagle dogs; format: in vivo, beagle dog
Method: In addition, 3 female and male beagle dogs were used per group to repeatedly subcutaneously administer the pentapeptide of Example 1 at doses of 40, 120, 400 mg/kg for 4 weeks daily. During the test period, general symptom observation, weight and feed intake measurements, ophthalmological examination, electrocardiogram, urinalysis, hematology and clinical biochemistry test, and toxicokinetic examination were performed. In addition, organ weight measurements, visual inspection, and histopathological examination of autopsy subjects were performed. […] Thus, the NOAEL (No Observed Adverse Effect Level) of the pentapeptide of Example 1 for female and male beagle dogs under the presented test conditions is determined to be 400 mg/kg/day.

[2] = Stability test: HPLC relative purity of peptide dissolved in buffer, by pH and temperature; format: physicochemical
Method: For Example 1 and Comparative Example 1, stability tests according to pH for each temperature were performed.
Stability tests for each peptide were performed by liquid chromatography purity analysis for each temperature and each pH according to analysis timing (initial, 24 hours, 130 hours). […] Samples were analyzed by injecting 20 ul of each sample with an auto-sample injector, and the analysis column was Inspire C18 (4.6×250 mm, […], 12 nm) manufactured by Dikma. The analysis temperature was 40° C., and a UV wavelength of 215 nm was used.
On the basis of the HPLC analysis results, relative purity was calculated for Comparative Example 1 and Example 1 for each storage condition. The relative purity is the percentage of measured purity changing according to the storage period, with the initial purity being set to 100% for each sample. FIGS. 1 and 2 are graphs showing the results of stability tests for Example and Comparative Example stored at a temperature of 25° C., in which FIG. 1 is a graph of a test result for 24 hours of storage, and FIG. 2 is a graph of a test result for 130 hours of storage. FIGS. 3 and 4 are graphs showing the results of stability tests for Example and Comparative Example stored at 40° C., in which FIG. 3 is a graph of a test result for 24 hours of storage, and FIG. 4 is a graph of a test result for 130 hours of storage. In each graph, the x-axis represents the test group by pH and the y-axis represents the relative purity […].

A549 = A549 cell viability (CCK-8) in NK92 co-culture with anti-PD-L1; format: cell-based, human; settings: 300 uM with 10 ug/ml anti-PD-L1, 24/48 hours of co-culturing
Method: The experiment described below was performed to evaluate the tumor cell proliferation inhibitory effect of the combination treatment of the peptide of Example 1 and the anti-PD-L1, which is an immune checkpoint inhibitor. First, 5×10^3 cells of a human prostate cancer cell line PC3, 5×10^3 cells of a human lung cancer cell line A549 (Korean Cell Line Bank), and 1×10^4 cells of a human triple negative breast cancer cell line MDA-MB-231 (ATCC) were seeded in 96 wells and stabilized by culturing overnight. Then, the seeded cells were treated with 10 ug/ml of the anti-PD-L1 and 300 uM of the peptide of Example 1, for each condition while NK92 cells for 5×10^3 cells of each of the PC3 cell line and the MDA-MB-231 cell line and 2.5×10^3 cells of the A549 cell line were additionally seeded. After 24/48/72 hours of co-culturing (for PC3 and MDA-MB-231) and 24/48 hours of co-culturing (for A549), the NK92 cells were removed by washing, and the cancer cell viability was measured by CCK-8 addition. FIG. 15 is a graph illustrating the changes in PC3 cell viability over culturing time for each test group in an anticancer effect evaluation test. In FIG. 15, the x-axis represents culturing time and the y-axis represents cell viability (%). FIG. 16 is a graph illustrating the changes in A549 cell viability over culturing time for each test group in an anticancer effect evaluation test. […]

[3] = 4-week repeated subcutaneous toxicity test in rats; format: in vivo, rat
Method: Ten female and male rats were administered the pentapeptide of Example 1 subcutaneously at doses of 500, 1000, 2000 mg/kg daily for 4 weeks to investigate toxicity, and a safety evaluation test was performed. Specifically, general symptom observation, body weight measurement, feed consumption measurement, ophthalmological examination, and urinary examination were performed. After the end of the observation period, hematology and clinical biochemistry test, organ weight measurement, visual examination at autopsy, and histopathological examination were performed. […] Synthesizing the results described above, the no observed adverse effect level (NOEAL) for female and male was determined to be greater than or equal to 2,000 mg/kg/day when the pentapeptide of Example 1 was administered repeatedly subcutaneously to the rats for 4 weeks.

[4] = 40, 120, 400 mg/kg subcutaneous daily for 4 weeks
[5] = 500, 1000, 2000 mg/kg subcutaneous daily for 4 weeks

Substance: Ac-QLHLD-OH [Example 1, acetyl-QLHLD]
- Abnormalities (body weight, feed intake, ophthalmic examination, electrocardiogram, urinalysis, hematology, clinical biochemistry, necropsy, organ weight) [1, 4]: No abnormalities
- Deaths [1, 4]: no deaths were observed
- Systemic exposure (AUClast, Cmax), dose dependence ([1]; Day 1 and Day 28, 40, 120, 400 mg/kg): approximately proportionally increased with increase in the dose
- Accumulation ([1]; Day 1 vs Day 28): no pentapeptide accumulation
- NOAEL at 4 weeks ([1]; both sexes, dog, in vivo, sc, female and male, subcutaneous, daily for 4 weeks, read-out: NOAEL (No Observed Adverse Effect Level)): 400 mg/kg/day
- Stability (summary in words) ([2]; liquid state, pH 2-9, 25 and 40° C., up to 130 hours): extremely stable regardless of storage conditions
- Relative purity ([2]; pH 2, 25 ± 2° C., RH 60 ± 5%, storage 0 hours (initial set to 100%)): 100.0%
- Relative purity ([2]; pH 2, 25 ± 2° C., RH 60 ± 5%, storage 24 hours): 99.7%
- Relative purity ([2]; pH 2, 25 ± 2° C., RH 60 ± 5%, storage 130 hours): 99.9%
- Relative purity ([2]; pH 2, 40 ± 2° C., RH 75 ± 5%, storage 0 hours (initial set to 100%)): 100.0%
- Relative purity ([2]; pH 2, 40 ± 2° C., RH 75 ± 5%, storage 24 hours): 99.4%
- Relative purity ([2]; pH 2, 40 ± 2° C., RH 75 ± 5%, storage 130 hours): 95.8%
- Relative purity ([2]; pH 5, 25 ± 2° C., RH 60 ± 5%, storage 0 hours (initial set to 100%)): 100.0%
- Relative purity ([2]; pH 5, 25 ± 2° C., RH 60 ± 5%, storage 24 hours): 100.0%
- Relative purity ([2]; pH 5, 25 ± 2° C., RH 60 ± 5%, storage 130 hours): 100.0%
- Relative purity ([2]; pH 5, 40 ± 2° C., RH 75 ± 5%, storage 0 hours (initial set to 100%)): 100.0%
- Relative purity ([2]; pH 5, 40 ± 2° C., RH 75 ± 5%, storage 24 hours): 100.0%
- Relative purity ([2]; pH 5, 40 ± 2° C., RH 75 ± 5%, storage 130 hours): 100.0%
- Relative purity ([2]; pH 7, 25 ± 2° C., RH 60 ± 5%, storage 0 hours (initial set to 100%)): 100.0%
- Relative purity ([2]; pH 7, 25 ± 2° C., RH 60 ± 5%, storage 24 hours): 100.0%
- Relative purity ([2]; pH 7, 25 ± 2° C., RH 60 ± 5%, storage 130 hours): 100.0%
- Relative purity ([2]; pH 7, 40 ± 2° C., RH 75 ± 5%, storage 0 hours (initial set to 100%)): 100.0%
- Relative purity ([2]; pH 7, 40 ± 2° C., RH 75 ± 5%, storage 24 hours): 100.0%
- Relative purity ([2]; pH 7, 40 ± 2° C., RH 75 ± 5%, storage 130 hours): 100.0%
- Relative purity ([2]; pH 9, 25 ± 2° C., RH 60 ± 5%, storage 0 hours (initial set to 100%)): 100.0%
- Relative purity ([2]; pH 9, 25 ± 2° C., RH 60 ± 5%, storage 24 hours): 100.0%
- Relative purity ([2]; pH 9, 25 ± 2° C., RH 60 ± 5%, storage 130 hours): 100.0%
- Relative purity ([2]; pH 9, 40 ± 2° C., RH 75 ± 5%, storage 0 hours (initial set to 100%)): 100.0%
- Relative purity ([2]; pH 9, 40 ± 2° C., RH 75 ± 5%, storage 24 hours): 99.9%
- Relative purity ([2]; pH 9, 40 ± 2° C., RH 75 ± 5%, storage 130 hours): 99.8%
- Cancer cell viability compared to the group treated with only anti-PD-L1 (A549): significant decrease in cancer cell viability
- Adverse findings related to the pentapeptide [3, 5]: no adverse findings
- Deaths [3, 5]: no deaths occurred
- No observed adverse effect level (NOEAL) ([3]; female and male, subcutaneous, daily for 4 weeks): greater than or equal to 2,000 mg/kg/day
